According to paper PMC9085648, “Synthesis of novel genistein amino acid derivatives and investigation on their interactions with bovine serum albumin by spectroscopy and molecular docking” (RSC Advances, 2018):
Like-named read-outs stand apart in the source and are kept apart here.

Key:
[1] = system: HCT-116; test: MTT cytotoxicity assay, HCT-116; format: cell-based; conditions: Homo sapiens, 48 h, mean ± SD of three experiments, read-out: Cancer cell lines IC50, HCT-116
Method: (§1) All cell lines were purchased from the Cell Bank of Type Culture Collection of Chinese Academy of Sciences (Shanghai, China). MGC-803 was routinely cultured in RPMI-1640 medium containing 10% FBS and 1% penicillin/streptomycin. MCF-7, HCT-116 and Hela were routinely cultured in medium DMEM/high glucose containing 10% FBS and 1% penicillin/streptomycin. All cell lines were incubated in culture at 37 °C in air with 5% CO2 for 24 h.
(§2) All cell lines were plated in 96-well plates, and each well contains 4000 cells in 100 μL culture medium. Then the cells were treated with genistein or its amino acid derivatives dissolved in DMSO at different doses in a CO2 incubator at 37 °C for 48 h, and DMSO was used as vehicle control. After removing the culture medium, 10 μL MTT and 90 μL blank culture medium were added to each well and incubated for additional 4 h at 37 °C. The absorbance was determined by a microplate-reader at 490 nm.

[2] = system: Hela; test: MTT cytotoxicity assay, Hela; format: cell-based; conditions: Homo sapiens, 48 h, mean ± SD of three experiments, read-out: Cancer cell lines IC50, Hela
Method: as §1, §2

[3] = target: T1, BSA (Bos taurus, UniProt P02769); test: Three-dimensional fluorescence spectroscopy of BSA; format: binding, bovine
T1 construct: purchased Aladdin's Reagent Co., Ltd. (Shanghai, China)
Method: The 3D fluorescence spectra of genistein and compounds 4a–4d were recorded with scanning excitation wavelength ranged from 200 nm to 300 nm with 10 nm interval, and emission wavelength ranged from 290 nm to 470 nm with 5 nm interval for three times. Other parameters were the same as Section 2.4.1.

[4] = system: MGC-803; test: MTT cytotoxicity assay, MGC-803; format: cell-based; conditions: Homo sapiens, 48 h, mean ± SD of three experiments, read-out: Cancer cell lines IC50, MGC-803
Method: as §1, §2

[5] = system: MCF-7; test: MTT cytotoxicity assay, MCF-7; format: cell-based; conditions: Homo sapiens, MCF7, 48 h, mean ± SD of three experiments, read-out: Cancer cell lines IC50, MCF-7
Method: as §1, §2

[6] = target: T1, BSA; test: Fluorescence quenching of BSA (Stern-Volmer, double-log, van't Hoff); format: binding, bovine; conditions: for K SV (quenching constant): BSA 1 μM, pH 7.4; for ΔGexp: ΔGexp = ΔH − TΔS; for K q (quenching rate constant): τ0 = 10^−8 s; for Kd: read-out: K b (binding constant) (converted); for ΔH / ΔS: van't Hoff, 298-310 K
Method: Fluorescence spectra were carried on a F-7000 fluorescence spectrophotometer (Japan) fitted out with a 1.0 cm quartz dish. The excitation wavelength was set at 280 nm with 5/5 nm slit widths, while the emission wavelength ranged from 290 nm to 500 nm at different temperatures. The BSA solution (1 μM) was titrated with genistein and its amino acid derivatives 4a–4d for three times. The final concentrations of genistein and 4a–4d were (0.0, 6.4, 12.8, 19.2, 25.6, 32, 38.4, 44.8, and 51.2) μM.
The Stern–Volmer equation is often applied to reveal the fluorescence quenching mechanism:[19]1 [drawing 1] where F0 and F are the fluorescence intensities of complex […], respectively.[18] [Q] denotes the concentration of quencher. Ksv and Kq are quenching constant and quenching rate constant of BSA, respectively.[20]τ0 is the lifetime of fluorophore in the absence of genistein, 4a–4d and equals to 10^−8 s.[21] […] It can be observed that the Ksv values decreased gradually with rise in temperature in Table 2. Furthermore, Kq values were in the order of 10^12, which were larger than the maximum diffusion collisional rate constant (2.0 × 10^10 M^−1 s^−1).[22]
Double-logarithmic eqn (2) is often used to explore the binding parameters of static quenching, such as binding constant (Kb) and binding sites (n):[23]2 [drawing 2]
To clarify the binding forces between genistein, 4a–4d and BSA, the thermodynamic parameters were studied via the van't Hoff equations:[25]3 [drawing 3] 4 ΔG = −RT ln K = ΔH − TΔSwhere T denotes the experimental temperature, K denotes the binding constant at the corresponding temperature, R is the gas constant.[26] According to Ross and Subramanian's previous research,[27] the characteristic for van der Waals interactions or/and hydrogen bonding is ΔH < 0 and ΔS < 0, for hydrophobic interaction is ΔH > 0 and ΔS > 0, and for electrostatic interactions is ΔH ≈ 0 and ΔS > 0.[28] The calculation results of the thermodynamic parameters were recorded in Table 3.

[7] = Peak 1, [BSA]:[compound] = 1:3, 298 K
[8] = Peak 2, [BSA]:[compound] = 1:3, 298 K
[9] = Peak a (Rayleigh scattering), [BSA]:[compound] = 1:3, 298 K

T1 sequence (P02769 25-607): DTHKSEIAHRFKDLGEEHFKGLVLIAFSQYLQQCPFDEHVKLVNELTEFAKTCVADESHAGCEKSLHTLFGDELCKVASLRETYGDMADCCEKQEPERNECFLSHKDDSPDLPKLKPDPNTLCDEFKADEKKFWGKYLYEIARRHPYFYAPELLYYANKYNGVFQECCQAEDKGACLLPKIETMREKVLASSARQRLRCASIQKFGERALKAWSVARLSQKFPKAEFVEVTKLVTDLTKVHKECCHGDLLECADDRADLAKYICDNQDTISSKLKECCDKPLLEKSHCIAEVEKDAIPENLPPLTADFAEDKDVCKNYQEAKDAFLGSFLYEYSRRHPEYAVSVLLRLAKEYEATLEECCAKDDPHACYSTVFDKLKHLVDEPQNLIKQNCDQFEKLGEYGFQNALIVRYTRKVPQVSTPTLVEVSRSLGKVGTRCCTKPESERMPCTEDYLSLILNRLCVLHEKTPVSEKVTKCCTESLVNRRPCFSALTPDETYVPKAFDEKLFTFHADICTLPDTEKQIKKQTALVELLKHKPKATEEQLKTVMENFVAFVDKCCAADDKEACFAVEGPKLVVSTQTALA

Structure (SMILES) | IC50 [1] [µM] | IC50 [2] [µM] | 3D fluorescence intensity [3, 7] [a.u] | 3D fluorescence peak position λex/λem [3, 7] | 3D fluorescence intensity [3, 8] [a.u] | 3D fluorescence peak position λex/λem [3, 8] | 3D fluorescence intensity [3, 9] [a.u] | 3D fluorescence peak position λex/λem [3, 9] | IC50 [4] [µM] | IC50 [5] [µM] | K SV (quenching constant) ([6]; T 298 K) | ΔGexp ([6]; T 298 K) [kJ/M] | K q (quenching rate constant) ([6]; T 298 K) | Kd ([6]; T 298 K) [µM] | n (binding sites) ([6]; T 306 K) | K SV (quenching constant) ([6]; T 306 K) | ΔGexp ([6]; T 306 K) [kJ/M] | K q (quenching rate constant) ([6]; T 306 K) | Kd ([6]; T 306 K) [µM] | n (binding sites) ([6]; T 310 K) | other results
COC(=O)CNC(=O)COc1cc(O)c2c(=O)c(-c3ccc(O)cc3)coc2c1 [4a] | 65.3 ± 2.91 | 66.6 ± 3.6 | 249.8 | 230/355 | 300.8 | 280/355 | 167.9 | 290/295 | 24.4 ± 1.27 | > 100 | 9.3690 ± 0.1055 10^4 M^−1 | -49.21 | 9.3690 10^12 M^−1 s^−1 | 0.0023 | 1.72 | 9.0645 ± 0.0720 10^4 M^−1 | -47.21 | 9.0645 10^12 M^−1 s^−1 | 0.00952 | 1.66 | n (binding sites) ([6]; T 298 K): 1.86; K SV (quenching constant) ([6]; T 310 K): 7.7362 ± 0.1223 10^4 M^−1; ΔGexp ([6]; T 310 K): -46.22 kJ/M; K q (quenching rate constant) ([6]; T 310 K): 7.7362 10^12 M^−1 s^−1; Kd ([6]; T 310 K): 0.0153 µM; ΔH [6]: -123.52 kJ/M; ΔS [6]: −249.37 J K^−1 M^−1
COC(=O)C(C)NC(=O)COc1cc(O)c2c(=O)c(-c3ccc(O)cc3)coc2c1 (stereo not drawn) [4b] | > 100 | 90.27 ± 0.47 | 199.8 | 230/355 | 242.6 | 280/355 | 140.7 | 290/295 | 12.08 ± 0.06 | 21.3 ± 2.24 | 8.0160 ± 0.1379 10^4 M^−1 | -42.01 | 8.0160 10^12 M^−1 s^−1 | 0.0649 | 1.53 | 6.9409 ± 0.0956 10^4 M^−1 | -38.43 | 6.9409 10^12 M^−1 s^−1 | 0.0794 | 1.23 | ΔGexp ([6]; T 310 K): -36.65 kJ/M; Kd ([6]; T 310 K): 1.55 µM; ΔH [6]: -175.21 kJ/M; ΔS [6]: −446.98 J K^−1 M^−1
COC(=O)C(NC(=O)COc1cc(O)c2c(=O)c(-c3ccc(O)cc3)coc2c1)C(C)C (stereo not drawn) [4c] | 42.64 ± 0.15 | 82.71 ± 0.15 | 254.6 | 230/355 | 338.3 | 280/355 | 210.9 | 290/295 | 33.53 ± 0.13 | 99.73 ± 0.11 | 6.2575 ± 0.1717 10^4 M^−1 | -41.29 | 6.2575 10^12 M^−1 s^−1 | 0.084 | 1.53 | 5.0010 ± 0.1067 10^4 M^−1 | -37.63 | 5.0010 10^12 M^−1 s^−1 | 0.119 | 1.24 | n (binding sites) ([6]; T 298 K): 1.54; K SV (quenching constant) ([6]; T 310 K): 4.8646 ± 0.1370 10^4 M^−1; ΔGexp ([6]; T 310 K): -35.81 kJ/M; K q (quenching rate constant) ([6]; T 310 K): 4.8646 10^12 M^−1 s^−1; Kd ([6]; T 310 K): 2.01 µM; ΔH [6]: -177.34 kJ/M; ΔS [6]: −456.55 J K^−1 M^−1
COC(=O)C(CC(C)C)NC(=O)COc1cc(O)c2c(=O)c(-c3ccc(O)cc3)coc2c1 (stereo not drawn) [4d] | 92.87 ± 0.04 | 68.1 ± 1.05 | 263.8 | 230/355 | 331.4 | 280/355 | 155.5 | 290/295 | 35.4 ± 3.72 | 47 ± 3.53 | 4.9339 ± 0.0500 10^4 M^−1 | -39.53 | 4.9339 10^12 M^−1 s^−1 | 0.15 | 1.47 | 4.8535 ± 0.0465 10^4 M^−1 | -37.19 | 4.8535 10^12 M^−1 s^−1 | 0.209 | 1.28 | n (binding sites) ([6]; T 298 K): 1.50; K SV (quenching constant) ([6]; T 310 K): 4.5804 ± 0.0360 10^4 M^−1; ΔGexp ([6]; T 310 K): -36.02 kJ/M; K q (quenching rate constant) ([6]; T 310 K): 4.5804 10^12 M^−1 s^−1; Kd ([6]; T 310 K): 1.42 µM; ΔH [6]: -126.67 kJ/M; ΔS [6]: −292.42 J K^−1 M^−1
O=c1c(-c2ccc(O)cc2)coc2cc(O)cc(O)c12 [Genistein] | > 100 | > 100 | 259.2 | 230/355 | 333.2 | 280/355 | 159.6 | 290/295 | > 100 | > 100 | 6.2416 ± 0.0984 10^4 M^−1 | -37.69 | 6.2416 10^12 M^−1 s^−1 | 0.256 | 1.39 | 5.3472 ± 0.1242 10^4 M^−1 | -37.11 | 5.3472 10^12 M^−1 s^−1 | 0.415 | 1.37 | n (binding sites) ([6]; T 298 K): 1.42; K SV (quenching constant) ([6]; T 310 K): 4.3285 ± 0.1005 10^4 M^−1; ΔGexp ([6]; T 310 K): -36.83 kJ/M; K q (quenching rate constant) ([6]; T 310 K): 4.3285 10^12 M^−1 s^−1; Kd ([6]; T 310 K): 0.671 µM; ΔH [6]: -59.09 kJ/M; ΔS [6]: −71.83 J K^−1 M^−1
